Reference: patent US20260216109A1, “TREATMENT OF SKIN DISORDERS WITH SHORT CHAIN FATTY ACIDS” (Temple University-Of The Commonwealth System of Higher …, priority 2023, published 2026)

Columns and labels:
IL-17A = test: Multiplex (MSD V-PLEX) cytokine release, InflammaSkin: IL-17A; format: cell-based, human; settings: Example 1; Day 7 supernatant; 1 μM Otezla or SCFA (45 μg/mL Ca-propionate + 1 mM Ca-/Mg-butyrate) systemic, 0.05% Betamethasone topical; vs untreated InflammaSkin
Protocol: (§1) A total of 16 biopsies of 15 mm diameter were produced from a single donor. Two NativeSkin® models with 12/15 mm silicon rings were produced from the biopsies according to standard procedures in place, and cultured under cell culture conditions (37° C., 5% CO2, max. humidity) for 7 days with 2 mL of standard NativeSkin® medium renewed every day. Fourteen PSO-InflammaSkin® models with 12/15 mm silicon rings were produced by inducing in situ activation and Th17/Th1 polarization of skin resident T cells with a proprietary cocktail, and cultured under cell culture conditions (37° C., 5% CO2, max. humidity) for 7 days with 2 mL of PSO-InflammaSkin® culture medium renewed every day.
(§2) From Day 1 to Day 6, models were systemically treated with 1 μM Otezla or Short Chain Fatty Acids (SCFAs), or topically treated with positive control 0.05% Betamethasone
(§3) In these experiments, the SCFAs administered were 45 μg/mL of Ca-propionate and 1 mM mixture of salts (Ca-butyrate and Mg-butyrate).
At Day 7, supernatants were collected and stored at −80° C. and skin models of all conditions were carefully unmolded. […]
Human pro-inflammatory cytokines released in the supernatant were quantified using the V-PLEX Human IL-17A Kit (MesoScale Discovery, reference: K151RFD-1) and V-PLEX Human TNFα Kit (MesoScale Discovery, reference: K151QWD-1). […]
(§4) Human pro-inflammatory cytokines released in the supernatant were quantified using the V-PLEX Human IL-17A Kit (MesoScale Discovery, reference: K151RFD-1) and V-PLEX Human custom Pro-inflammatory. […]
(§5) Samples were diluted four times for plate 2 and two times for plate 1. Samples and standards were assessed in duplicate. Plates were read on MesoScale Discovery Quickpleax SQ 120 plate reader and values expressed in pg/mL.
(§6) A statistical analysis was performed. […] First, the distribution's normality of the two compared group was assessed. […] If the two distributions were normal, the homogeneity of variances was assessed using a Fisher test on the variances. […]

IL-27 = test: Multiplex (MSD V-PLEX) cytokine release, InflammaSkin: IL-27; format: cell-based, human; settings: Example 2; 0.05% Betamethasone topical; vs untreated InflammaSkin
Protocol: A total of 16 biopsies of 15 mm diameter were produced from a single donor. Two NativeSkin® models with 12/15 mm silicon rings were produced from the biopsies according to standard procedures in place, and cultured under cell culture conditions (37° C., 5% CO2, max. humidity) for 7 days with 2 mL of standard NativeSkin® medium renewed every day. Fourteen PSO-InflammaSkin® models with 12/15 mm silicon rings were produced by inducing in situ activation and Th17/Th1 polarization of skin resident T cells with a proprietary cocktail, and cultured under cell culture conditions (37° C., 5% CO2, max. humidity) for 7 days with 2 mL of PSO-InflammaSkin® culture medium renewed every day. […]
as §4, §5, §6

TNF-α = test: Multiplex (MSD V-PLEX) cytokine release, InflammaSkin: TNF-α; format: cell-based, human; settings: Example 1; Day 7 supernatant; SCFA (45 μg/mL Ca-propionate + 1 mM Ca-/Mg-butyrate) systemic, 0.05% Betamethasone topical; vs untreated InflammaSkin
Protocol: as §1, §2, §3
At Day 7, supernatants were collected and stored at −80° C. and skin models of all conditions were carefully unmolded. Skin biopsies were re-punched to eliminate the area under the silicon ring, fixed in 10% buffered formalin and processed for paraffin wax embedding.
Human pro-inflammatory cytokines released in the supernatant were quantified using the V-PLEX Human IL-17A Kit (MesoScale Discovery, reference: K151RFD-1) and V-PLEX Human TNFα Kit (MesoScale Discovery, reference: K151QWD-1). Values are expressed in pg/mL. For each condition, single values, mean and SEM were plotted using GraphPad Prism. Statistical analysis was performed using a One Way ANOVA test.
PSO-InflammaSkin® models were cultured and treated as described in Example 1. In these experiments, the SCFAs administered were 45 μg/mL of Ca-propionate and 1 mM mixture of salts (Ca-butyrate and Mg-butyrate).
Human pro-inflammatory cytokines released in the supernatant were quantified using the V-PLEX Human IL-17A Kit (MesoScale Discovery, reference: K151RFD-1) and V-PLEX Human custom Pro-inflammatory. Plate 1 comprised Proinflammatory Panel 1 (human) kit reference K15049 (panel IFN-γ and TNF-α). Plate 2 comprised TH17 Panel 1 (human) kit reference K15049 (panel IL-17A Gen B, IL-21, IL-22, IL-23, IL-27, IL-31, MIP-3α).
as §5
A statistical analysis was performed. Each condition was compared to the untreated InflammaSkin® condition. First, the distribution's normality of the two compared group was assessed. […] If the two distributions were normal, the homogeneity of variances was assessed using a Fisher test on the variances. […]

[1] = tested on: imiquimod (IMQ)-induced psoriasis model mice; test: Transepidermal water loss (TEWL) on back skin, IMQ-induced psoriasis model in mice; format: in vivo, mouse; settings: Example 4, day 5, Apremilast 25 mg/kg BID p.o., SCFA fixed dose BID p.o., Etanercept 10 mg/kg Q3D s.c.
Protocol: Topical application of IMQ, a TLR7/8 ligand and potent immune activator induced and exacerbated psoriasis in mice. The mouse IMQ-induced psoriasis (IMQ Ps) model was initiated by a repeated topical application of Aldara© cream (containing 5% IMQ) over 6 consecutive days. Female Balb/c mice (9 weeks of age at reception, ordered with 20 g, Charles River, Sulzfeld, Germany; n=10 mice/group, exception healthy controls n=4) received daily a topical application of 62.5 mg of commercially available IMQ cream (5% Aldara©) on the beforehand (day −1) shaved (~2 cm×3 cm), depilated (Pilka© cream) back skin, and 7 mg on the outer right ear skin for 6 consecutive days, translating in a daily dose of approximately 3.5 mg IMQ. Healthy control mice were included in the study and were treated with vehicle cream (Vaseline; Bombastus-Werke AG) only instead of IMQ. Additionally, an IMQ disease control group was also included.
Physiological parameter transepidermal water loss (TEWL; in g/m^2/h) was tested and evaluated on back skin at day 5 by a Tewameter (TM300, Courage and Khazaka, Cologne, Germany) during the IMQ psoriasis experiment. TEWL is a common examined parameters for the assessment of a disturbed skin function present in psoriatic skin. TEWL may be used a diagnostic marker in the clinics to accurately assess the disease severity in psoriasis.

C[C@H]1C[C@H]2[C@@H]3CCC4=CC(=O)C=C[C@]4(C)[C@@]3(F)[C@@H](O)C[C@]2(C)[C@@]1(O)C(=O)CO [Betamethasone]
IL-17A levels decreased by (IL-17A): about 70%
increase of IL-27 cytokine secretion (IL-27): about 30%
TNF-α levels decreased by (TNF-α): ~ 40%

Etanercept
transepidermal water loss (TEWL) [1]: did not show significant effects
